Results from US20080299587A1, “METHODS OF MEASURING INHIBITION OF PLATELET AGGREGATION BY THROMBIN RECEPTOR ANTAGONISTS” (priority 2007, published 2008).
Like-named read-outs stand apart in the source and are kept apart here.

Key:
[1] = rat balloon injury model; cited from earlier work
[2] = system: IL-6, CD40 ligand and P-selectin; details: human cells; cited from earlier work
[3] = system: platelets in whole blood activated by PAR-1 thrombin receptor activating peptide (TRAP-1); assay: VERIFYNOW IIb/IIIa Assay, dose-dependent platelet inhibition with TRAP-1 as platelet activator; format: cell-based, human; details: TRAP-1 3.7 μM; for % Inhibition, Average: Average of four human donors; for % Inhibition (platelet inhibition relative to baseline): whole blood, 30 min 37°C
Excerpt: The VERIFYNOW™ System instrument is a turbidometric based optical detection system that measures platelet induced aggregation as an increase in light transmittance. The system includes an analyzer, disposable cartridge and controls. The cartridge contains reagents based on microparticle agglutination technology. The quality control system includes an electronic control, two levels of assayed “wet” controls (WQC), an in-cartridge humidity sensor, an in-packaging temperature indicator, and a test for concurrence of two assay channels. […] For use in the present methods the test cartridge of the system contains a lyophilized preparation comprising particles with passively bound GPIIb/IIIa receptor ligand, a thrombin receptor activator, and buffer. The patient sample is usually citrated whole blood, which is automatically dispensed from the blood collection tube into the cartridge by the analyzer, with no blood handling required by the user. The interaction is monitored by the infrared absorbency characteristics of the particles. As the particles interact with the platelets, the agglutination of the particles is measured through the optical system of the VERIFYNOW™ instrument. The agglutination is detected as an increase in the transmission of infrared light through the sample.
An experiment was conducted to determine dose-dependent platelet inhibition by the PAR-1 antagonist E5555 (Eisai Co., Ltd.) using the VERIFYNOW™ IIb/IIIa Assay (Accumetrics, Inc., San Diego, Calif.) and PAR-1 thrombin receptor activating peptide (TRAP-1) as the platelet activator.
Dose response testing was performed with TRAP-1 at 3.7 μM. E5555 was used at final concentrations of 30 ng/ml, 10 ng/ml, 5.0 ng/ml and 1.0 ng/ml. 20 μL of each stock solution was spiked into 2.0 ml of whole blood (1:100 dilution) and mixed carefully to prevent hemolysis. After mixing, the blood samples were incubated for 30 min at 37° C. prior to platelet inhibition test.
Blood samples from four human donors were run in duplicate at baseline and for each of the four E5555 concentrations. As one might have expected, there was donor-to-donor variability in the levels of platelet inhibition measured at a given concentration of E5555. Based on the expected levels of inhibition at each concentration of E5555 provided, the actual results were on average slightly lower than expected across the four donors.

[4] = rabbit subarachnoid hemorrhage model; cited from earlier work
[5] = system: platelets in whole blood activated by PAR-1 thrombin receptor activating peptide (TRAP-1); details: expected level of inhibition provided, cited from earlier work
[6] = guinea pig thrombosis model; cited from earlier work
PAR-1 thrombin receptor = target: T1, PAR-1 thrombin receptor (Homo sapiens, UniProt P25116); details: cited from earlier work
T1 sequence (P25116 22-425): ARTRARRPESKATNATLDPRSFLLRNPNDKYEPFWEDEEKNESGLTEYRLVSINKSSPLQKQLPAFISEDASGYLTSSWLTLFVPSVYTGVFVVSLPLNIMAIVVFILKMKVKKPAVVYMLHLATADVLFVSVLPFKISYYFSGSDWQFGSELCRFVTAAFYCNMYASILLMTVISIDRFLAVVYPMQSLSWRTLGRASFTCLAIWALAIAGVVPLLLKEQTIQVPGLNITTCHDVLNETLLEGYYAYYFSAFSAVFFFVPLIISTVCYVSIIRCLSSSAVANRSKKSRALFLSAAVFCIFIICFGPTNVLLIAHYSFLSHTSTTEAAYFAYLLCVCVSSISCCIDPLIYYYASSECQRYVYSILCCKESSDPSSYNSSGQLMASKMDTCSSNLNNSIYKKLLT

platelet aggregation = details: blood samples from patients undergoing non-urgent PCI; cited from earlier work
[7] = Phase II clinical studies, treated patients; cited from earlier work
[8] = target: T2, platelet thrombin receptors (Homo sapiens, UniProt P25116); details: receptors activated by either thrombin or TRAP-1; cited from earlier work
T2 construct: host or cells: platelets
T2 sequence (P25116 22-425): T1 sequence (P25116 22-425)

CCOc1cc2c(c(F)c1OCC)C(=N)N(CC(=O)c1cc(N3CCOCC3)c(OC)c(C(C)(C)C)c1)C2 [E5555]
effect on neointima hyperplasia [1]: inhibitory effects | effect on thrombin-induced release or expression of inflammatory markers (IL-6, CD40 ligand, P-selectin) [2]: inhibitory effects | % Inhibition, Average ([3]; 1 ng/ml E5555): 5% | % Inhibition, Average ([3]; 5 ng/ml E5555): 30% | % Inhibition, Average ([3]; 10 ng/ml E5555): 57% | % Inhibition, Average ([3]; 30 ng/ml E5555): 86% | % Inhibition (platelet inhibition relative to baseline) ([3]; Donor ID: 60, 1 ng/ml E5555): 7% | % Inhibition (platelet inhibition relative to baseline) ([3]; Donor ID: 60, 5 ng/ml E5555): 17% | % Inhibition (platelet inhibition relative to baseline) ([3]; Donor ID: 60, 10 ng/ml E5555): 46% | % Inhibition (platelet inhibition relative to baseline) ([3]; Donor ID: 60, 30 ng/ml E5555): 82% | % Inhibition (platelet inhibition relative to baseline) ([3]; Donor ID: 75, 1 ng/ml E5555): −1% | % Inhibition (platelet inhibition relative to baseline) ([3]; Donor ID: 75, 5 ng/ml E5555): 15% | % Inhibition (platelet inhibition relative to baseline) ([3]; Donor ID: 75, 10 ng/ml E5555): 39% | % Inhibition (platelet inhibition relative to baseline) ([3]; Donor ID: 75, 30 ng/ml E5555): 78% | % Inhibition (platelet inhibition relative to baseline) ([3]; Donor ID: 126, 1 ng/ml E5555): 5% | % Inhibition (platelet inhibition relative to baseline) ([3]; Donor ID: 126, 5 ng/ml E5555): 51% | % Inhibition (platelet inhibition relative to baseline) ([3]; Donor ID: 126, 10 ng/ml E5555): 77% | % Inhibition (platelet inhibition relative to baseline) ([3]; Donor ID: 126, 30 ng/ml E5555): 97% | % Inhibition (platelet inhibition relative to baseline) ([3]; Donor ID: 137, 1 ng/ml E5555): 7% | % Inhibition (platelet inhibition relative to baseline) ([3]; Donor ID: 137, 5 ng/ml E5555): 35% | % Inhibition (platelet inhibition relative to baseline) ([3]; Donor ID: 137, 10 ng/ml E5555): 66% | % Inhibition (platelet inhibition relative to baseline) ([3]; Donor ID: 137, 30 ng/ml E5555): 88% | effect on thrombin-induced contractile response [4]: inhibitory effects | % Inhibition, Expected ([5]; 1 ng/ml E5555): 10-50% | % Inhibition, Expected ([5]; 5 ng/ml E5555): 40-80% | % Inhibition, Expected ([5]; 10 ng/ml E5555): 70-100% | % Inhibition, Expected ([5]; 30 ng/ml E5555): 100% | anti-thrombotic effect [6]: anti-thrombotic effect

CCOC(=O)N[C@@H]1CC[C@@H]2[C@@H](C1)C[C@H]1C(=O)O[C@H](C)[C@H]1[C@H]2/C=C/c1ccc(-c2cccc(F)c2)cn1 [SCH 530348]
inhibition of the PAR-1 thrombin receptor (PAR-1 thrombin receptor): potent inhibitor | inhibition of platelet aggregation (platelet aggregation): sustained, dose-dependent, specific agonist-induced inhibition of platelet aggregation | bleeding time and coagulation times [7]: no increase in bleeding time or prolongation in coagulation times

Phe-Leu-Leu-Arg-Asn (FLLRN; printed: Phe-Leu-Leu-Arg-Asn) [truncated TRAP-1 pentapeptide]
antagonism of platelet thrombin receptors [8]: weak antagonist
